Data taken from patent US8017612B2, “Piperazine compound and use thereof as a HCV polymerase inhibitor” (priority 2006, dated 2011).

How the values were obtained:
[1] = target: T1, HCV polymerase (NS5B) type 1a (Hepatitis C virus genotype 1a, UniProt P26664); test: Assay of enzyme (HCV polymerase) inhibitory activity, type 1a enzyme; format: biochemical, HCV type 1a (cloned from the blood of patients); conditions: HCV polymerase inhibitory activity IC50, 1a, type 1a enzyme
T1 construct: made in house; host or cells: Escherichia coli (by the 'similar method' of the 1b enzyme)
Method in brief: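 NS5B Δ47 C-term His6 (type 1a, 1.5 μg/ml); substrate RNA 5 μg/ml; ATP/GTP/CTP 50 μM, UTP 2 μM + [5,6-3H]UTP; Tris pH 7.5, MgCl2 5 mM; 25° C, 60 min. TCA/pyrophosphate stop, GF/B filter, scintillation. IC50 vs no-compound control.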

[2] = target: T2, HCV polymerase (NS5B) type 1b (Hepatitis C virus genotype 1b, UniProt P26663); test: Assay of enzyme (HCV polymerase) inhibitory activity, type 1b enzyme; format: biochemical, HCV BK strain (type 1b); conditions: HCV polymerase inhibitory activity IC50, 1b, type 1b enzyme
T2 construct: a region encoding NS5B (J Virol 1991 March, 65(3), 1105-13, 544 amino acids after deletion of 47 amino acids on the C-terminal); 6xHis (C); made in house; host or cells: Escherichia coli
Method in brief: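 Rxn: NS5B 1b (BK, ΔC47, His6) 0.5 μg/ml; substrate RNA 5 μg/ml; ATP/GTP/CTP 50 μM, UTP 2 μM + [5,6-3H]UTP; 20 mM Tris pH 7.5, 5 mM MgCl2, 50 mM NaCl, 1 mM EDTA/DTT. 25 °C, 60 min. Stop with TCA/pyrophosphate, filter, scintillation count; IC50 vs. untreated.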

Compound | IC50 [1] | IC50 [2]
Cc1nc(N2CCN(S(=O)(=O)c3ccc(OC(F)(F)F)cc3)[C@@H](C(=O)NCc3ccc(OC(F)(F)F)cc3)C2)cnc1C(=O)O [Example 809, (R)-6′-methyl-4-(4-trifluoromethoxy-benzenesulfonyl)-3-(4-trifluoromethoxy-benzylcarbamoyl)-3,4,5,6-tetrahydro-2H-[1,2′]bipyrazinyl-5′-carboxylic acid] | < 100 nM | < 100 nM
NC(=O)CCc1cncc2ncc(N3CCN(S(=O)(=O)c4ccc(OC(F)(F)F)cc4)[C@@H](C(=O)NCc4ccc(OC(F)(F)F)cc4)C3)nc12 [Example 810, (R)-4-[8-(2-carbamoyl-ethyl)-pyrido[3,4-b]pyrazin-2-yl]-1-(4-trifluoromethoxy-benzenesulfonyl)-piperazine-2-carboxylic acid 4-trifluoromethoxy-benzylamide] | < 100 nM | < 100 nM
O=C(NCCCc1ccccc1)[C@H]1CN(c2cnc3cncnc3n2)CCN1S(=O)(=O)c1ccc(OC(F)(F)F)cc1 [Example 811, (R)-4-pteridin-7-yl-1-(4-trifluoromethoxy-benzenesulfonyl)-piperazine-2-carboxylic acid (3-phenyl-propyl)-amide] | 100 to 1000 nM | 100 to 1000 nM
CCCc1ccc(CNC(=O)[C@H]2CN(c3nc4cn[nH]c(=O)c4s3)CCN2S(=O)(=O)c2ccc(CC)cc2)cc1 [Example 812, (R)-1-(4-ethyl-benzenesulfonyl)-4-(7-oxo-6,7-dihydro-thiazolo[4,5-d]pyridazin-2-yl)-piperazine-2-carboxylic acid 4-propyl-benzylamide] | < 100 nM | < 100 nM
CCCc1ccc(CNC(=O)[C@H]2CN(c3cnc4cncc(Br)c4n3)CCN2S(=O)(=O)c2ccc(CC)cc2)cc1 [Example 813, (R)-4-(8-bromo-pyrido[3,4-b]pyrazin-2-yl)-1-(4-ethyl-benzenesulfonyl)-piperazine-2-carboxylic acid 4-propyl-benzylamide] | < 100 nM | < 100 nM
CCCc1ccc(CNC(=O)[C@H]2CN(c3cnc4c(C(=O)O)cccc4n3)CCN2S(=O)(=O)c2ccc(CC)cc2)cc1 [Example 814, 2-[(R)-4-(4-ethyl-benzenesulfonyl)-3-(4-propyl-benzylcarbamoyl)-piperazin-1-yl]-quinoxaline-5-carboxylic acid] | < 100 nM | < 100 nM
CCCc1ccc(CNC(=O)[C@H]2CN(c3cnc4cncc(C(=O)O)c4n3)CCN2S(=O)(=O)c2ccc(CC)cc2)cc1 [Example 815, 2-[(R)-4-(4-ethyl-benzenesulfonyl)-3-(4-propyl-benzylcarbamoyl)-piperazin-1-yl]-pyrido[3,4-b]pyrazine-8-carboxylic acid] | < 100 nM | < 100 nM
CCCc1ccc(CNC(=O)[C@H]2CN(c3cnc4cccc(C(=O)O)c4n3)CCN2S(=O)(=O)c2ccc(CC)cc2)cc1 [Example 816, 3-[(R)-4-(4-ethyl-benzenesulfonyl)-3-(4-propyl-benzylcarbamoyl)-piperazin-1-yl]-quinoxaline-5-carboxylic acid] | < 100 nM | < 100 nM
CCCc1ccc(CNC(=O)[C@H]2CN(c3cnc4c(C(=O)O)cccc4n3)CCN2S(=O)(=O)c2ccc(OC(F)(F)F)cc2)cc1 [Example 817, 2-[(R)-3-(4-propyl-benzylcarbamoyl)-4-(4-trifluoromethoxy-benzenesulfonyl)-piperazin-1-yl]-quinoxaline-5-carboxylic acid] | < 100 nM | < 100 nM
CCCc1ccc(CNC(=O)[C@H]2CN(c3nc4c(C(=O)O)cccc4s3)CCN2S(=O)(=O)c2ccc(CC)cc2)cc1 [Example 818, 2-[(R)-4-(4-ethyl-benzenesulfonyl)-3-(4-propyl-benzylcarbamoyl)-piperazin-1-yl]-benzothiazole-4-carboxylic acid] | < 100 nM | < 100 nM
CCCc1ccc(CNC(=O)[C@H]2CN(c3nc4cn[nH]c(=O)c4s3)CCN2S(=O)(=O)c2ccc(OC(F)(F)F)cc2)cc1 [Example 819, (R)-4-(7-oxo-6,7-dihydro-thiazolo[4,5-d]pyridazin-2-yl)-1-(4-trifluoromethoxy-benzenesulfonyl)-piperazine-2-carboxylic acid 4-propyl-benzylamide] | < 100 nM | < 100 nM
CCCc1ccc(CNC(=O)[C@H]2CN(c3nc4cn[nH]c(=O)c4s3)CCN2S(=O)(=O)c2ccc(C(F)(F)F)cc2)cc1 [Example 820, (R)-4-(7-oxo-6,7-dihydro-thiazolo[4,5-d]pyridazin-2-yl)-1-(4-trifluoromethyl-benzenesulfonyl)-piperazine-2-carboxylic acid 4-propyl-benzylamide] | < 100 nM | < 100 nM
CCC(F)(F)c1ccc(CNC(=O)[C@H]2CN(c3nc4cn[nH]c(=O)c4s3)CCN2S(=O)(=O)c2ccc(OC(F)(F)F)cc2)cc1 [Example 821, (R)-4-(7-oxo-6,7-dihydro-thiazolo[4,5-d]pyridazin-2-yl)-1-(4-trifluoromethoxy-benzenesulfonyl)-piperazine-2-carboxylic acid 4-(1,1-difluoro-propyl)-benzylamide] | < 100 nM | < 100 nM
CCCc1ccc(CNC(=O)[C@H]2CN(c3ccc(C(=O)O)c(C)n3)CCN2S(=O)(=O)c2ccc(OC(F)(F)F)cc2)cc1 [Example 822, 2-methyl-6-[(R)-3-(4-propyl-benzylcarbamoyl)-4-(4-trifluoromethoxy-benzenesulfonyl)-piperazin-1-yl]-nicotinic acid] | < 100 nM | < 100 nM
CCCc1ccc(CNC(=O)[C@H]2CN(c3nc(C)c(C(=O)O)cc3F)CCN2S(=O)(=O)c2ccc(OC(F)(F)F)cc2)cc1 [Example 823, 5-fluoro-2-methyl-6-[(R)-3-(4-propyl-benzylcarbamoyl)-4-(4-trifluoromethoxy-benzenesulfonyl)-piperazin-1-yl]-nicotinic acid] | 100 to 1000 nM | 100 to 1000 nM
CCCc1ccc(CNC(=O)[C@H]2CN(c3cnc4cncc(C(=O)O)c4n3)CCN2S(=O)(=O)c2ccc(OC(F)(F)F)cc2)cc1 [Example 824, 2-[(R)-3-(4-propyl-benzylcarbamoyl)-4-(4-trifluoromethoxy-benzenesulfonyl)-piperazin-1-yl]-pyrido[3,4-b]pyrazine-8-carboxylic acid] | < 100 nM | < 100 nM
CCCc1ccc(CNC(=O)[C@H]2CN(c3nc4cn[nH]c(=O)c4s3)CCN2S(=O)(=O)c2ccc([N+](=O)[O-])cc2)cc1 [Example 825, (R)-1-(4-nitro-benzenesulfonyl)-4-(7-oxo-6,7-dihydro-thiazolo[4,5-d]pyridazin-2-yl)-piperazine-2-carboxylic acid 4-propyl-benzylamide] | < 100 nM | < 100 nM
CCCc1ccc(CNC(=O)[C@H]2CN(c3nc(C)c(CCC(=O)O)s3)CCN2S(=O)(=O)c2ccc(OC(F)(F)F)cc2)cc1 [Example 826, 3-{4-methyl-2-[(R)-3-(4-propyl-benzylcarbamoyl)-4-(4-trifluoromethoxy-benzenesulfonyl)-piperazin-1-yl]-thiazol-5-yl}-propionic acid] | < 100 nM | < 100 nM
CCCc1ccc(CNC(=O)[C@H]2CN(c3nc(C)c(S(N)(=O)=O)s3)CCN2S(=O)(=O)c2ccc(OC(F)(F)F)cc2)cc1 [Example 827, (R)-4-(4-methyl-5-sulfamoyl-thiazol-2-yl)-1-(4-trifluoromethoxy-benzenesulfonyl)-piperazine-2-carboxylic acid 4-propyl-benzylamide] | < 100 nM | < 100 nM
CCCc1ccc(CNC(=O)[C@H]2CN(c3nc(C)c(S(=O)(=O)NC)s3)CCN2S(=O)(=O)c2ccc(OC(F)(F)F)cc2)cc1 [Example 828, (R)-4-(4-methyl-5-methylsulfamoyl-thiazol-2-yl)-1-(4-trifluoromethoxy-benzenesulfonyl)-piperazine-2-carboxylic acid 4-propyl-benzylamide] | < 100 nM | < 100 nM
CCCc1ccc(CNC(=O)[C@H]2CN(c3nc(C)c(S(=O)(=O)N(C)C)s3)CCN2S(=O)(=O)c2ccc(OC(F)(F)F)cc2)cc1 [Example 829, (R)-4-(5-dimethylsulfamoyl-4-methyl-thiazol-2-yl)-1-(4-trifluoromethoxy-benzenesulfonyl)-piperazine-2-carboxylic acid 4-propyl-benzylamide] | 100 to 1000 nM | < 100 nM
CCCc1ccc(CNC(=O)[C@H]2CN(C(=O)Nc3ccccc3)CCN2S(=O)(=O)c2ccc(OC(F)(F)F)cc2)cc1 [Example 830, (R)-4-(4-trifluoromethoxy-benzenesulfonyl)-piperazine-1,3-dicarboxylic acid 1-phenylamide 3-(4-propyl-benzylamide)] | 100 to 1000 nM | < 100 nM
CCCc1ccc(CNC(=O)[C@H]2CN(C(=O)Nc3ccccc3C(=O)OC)CCN2S(=O)(=O)c2ccc(OC(F)(F)F)cc2)cc1 [Example 831, 2-{[(R)-3-(4-propyl-benzylcarbamoyl)-4-(4-trifluoromethoxy-benzenesulfonyl)-piperazine-1-carbonyl]-amino}-benzoic acid methyl ester] | > 1000 nM | > 1000 nM
